# Experimental data taken from patent US10457707B2, “Substituted urea depsipeptide analogs as activators of the CLPP endopeptidase” (priority 2015, dated 2019).
# Like-named read-outs stand apart in the source and are kept apart here. *1 amine or outer side, *2 acyl side, *3 side chain or, on linkers, in order; H or OH if unused. Where a SMILES comes first, the peptide text is derived from it. Bridges are numbered along the chain shown (N, C = ends). [ ]: non-standard residue; d: D form. The star is where a group is joined. ξ: configuration not given here. Phe(3,5-F2) = N[C@@H](Cc1cc(F)cc(F)c1)C(=O)O; NH(4-OCF3-phenyl) = FC(F)(F)Oc1ccc(N*)cc1; Morpholine(3S-CO) = O=C(O)[C@@H]1COCCN1; Pro(4S-Me) = C[C@@H]1CN[C@H](C(=O)O)C1; Pro(4R-Me) = C[C@H]1CN[C@H](C(=O)O)C1; NH(3,4-Me2-phenyl) = Cc1ccc(N*)cc1C; ξPro(4R-OH) = O=C(O)C1C[C@@H](O)CN1; NMeaThr = CN[C@H](C(=O)O)[C@H](C)O; ξPro(4R-Me) = C[C@H]1CNC(C(=O)O)C1; Hyp = O=C(O)[C@@H]1C[C@@H](O)CN1; NH(4-Et-phenyl) = CCc1ccc(N*)cc1; NMeT = CN[C@H](C(=O)O)[C@@H](C)O; NH(4-Me-phenyl) = Cc1ccc(N*)cc1; aThr = C[C@H](O)[C@H](N)C(=O)O; Pip = O=C(O)[C@@H]1CCCCN1; NMeA = CN[C@@H](C)C(=O)O; CO = O=C([*:1])[*:2]
# Target: T1, Sa-ClpP (Staphylococcus aureus, UniProt Q2G036)
# T1 construct: made in house; host or cells: E. coli BL21(DE3)
# T1 sequence (Q2G036 1-195): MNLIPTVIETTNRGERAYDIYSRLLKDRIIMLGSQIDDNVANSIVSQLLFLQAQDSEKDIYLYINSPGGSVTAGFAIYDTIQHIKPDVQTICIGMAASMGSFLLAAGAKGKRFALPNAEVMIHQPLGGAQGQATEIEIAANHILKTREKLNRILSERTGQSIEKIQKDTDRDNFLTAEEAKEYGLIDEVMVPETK
# Assay: ADEP displacement fluorescence polarization assay (FP probe ADEP 2591)
# Type: binding
# Experimental: A fluorescence polarization (FP) assay was used to determine the activity of the disclosed compounds in displacing an ADEP analogue from ClpP. Briefly, the assay was performed in black 384 well, flat bottom, low volume plates (Greiner Bio-One, Monroe, N.C., catalog #784076). 20 μL of a pre-equilibrated (1 hr, room temperature) master mix (15 μM Sa-ClpP, 2% DMSO (v/v) and 50 nM FP probe in Tris*HCl, pH 8.0)) was pipetted into each well using a Well-Mate (Thermo Scientific, Waltham, Mass.). Sa-ClpP was prepared as described above for the ClpP activation assay. The FP probe was ADEP 2591 (structure shown above). The ADEP 2591 comprises a TAMRA fluorophore linked to a core based on modified ADEP 2378 via a short alkyl linker. Using pin transfer, approximately 0.4 μL (2% v/v DMSO) of each compound or control was added per well. After addition of compounds and controls, plates were allowed to incubate for an additional 120 minutes at room temperature. All assays were performed in triplicate. Polarization was monitored using an EnVision Multilabel reader (Perkin-Elmer, Waltham, Mass.) by exciting the FP probe at 530±25 nm, and monitoring fluorescence intensity of both parallel and perpendicular polarized light at 579±25 nm. Readout was in millipolarization units (mP).
# Data collected was normalized to values obtained from positive (200 μM ADEP 2378) or negative (DMSO) controls. Curves were fit with non-linear regression using the equation “log [inhibitor] vs. Response-variable slope (four parameters)-symmetrical” in the program Prism 6 (GraphPad Software, La Jolla, Calif. USA, www.graphpad.com). The structures for ADEP 2378 and ADEP 2591 are shown above. ADEP 2378 is (E)-N—((S)-1-(((2R,6S,8aS,14aS,20S,23aS)-2,6-dimethyl-5,8,14,19,23-pentaoxooctadecahydro-1H,5H,14H,19H-pyrido[2,1-i]dipyrrolo[2,1-c:2′,1′-1][1]oxa[4,7,10,13]tetraazacyclohexadecin-20-yl)amino)-1-oxo-3-phenylpropan-2-yl)pent-2-enamide. ADEP 2591 is 5-(3-(3-((6S,9S,11aS,17S,20aS)-6,10-dimethyl-5,8,11,16,20-pentaoxo-17-((S)-2-((E)-pent-2-enamido)-3-phenylpropanamido)hexadecahydro-1H,5H,16H-dipyrrolo[2,1-c:2′,1′-1][1]oxa[4,7,10,13]tetraazacyclohexadecin-9-yl)propyl)thioureido)-2-(6-(dimethylamino)-3-(dimethyliminio)-3H-xanthen-9-yl)benzoate.
# [1] = displacement of FP probe ADEP 2591 from Sa-ClpP, read-out: ADEP Displacement IC50
Structure (SMILES),IC50,IC50 [1]
"Cc1ccc(NC(=O)N[C@@H](Cc2cc(F)cc(F)c2)C(=O)N[C@@H]2C(=O)N3C[C@H](O)C[C@H]3C(=O)N3CCCC[C@H]3C(=O)N[C@@H](C)C(=O)N3C[C@H](C)C[C@H]3C(=O)O[C@H]2C)cc1C [Compound 212, (S)-3-(3,5-difluorophenyl)-2-(3-(3,4-dimethylphenyl)ureido)-N-((2R,6S,8aS,14aS,16R,20S,21S,23aS)-16-hydroxy-2,6,21-trimethyl-5,8,14,19,23-pentaoxooctadecahydro-1H,5H,14H,19H-pyrido[2,1-i]dipyrrolo[2,1-c:2′,1′-l][1]oxa[4,7,10,13]tetraazacyclohexadecin-20-yl)propanamide] ({NH(3,4-Me2-phenyl)-CO}-[Phe(3,5-F2)][aThr][Hyp][Pip]A[Pro(4R-Me)]; ester 2-C)",6.9 ± 0.3 µM,–
"CCc1ccc(NC(=O)N[C@@H](Cc2cc(F)cc(F)c2)C(=O)N[C@@H]2C(=O)N3C[C@H](O)C[C@H]3C(=O)N3CCCC[C@H]3C(=O)N[C@@H](C)C(=O)N3C[C@H](C)C[C@H]3C(=O)O[C@H]2C)cc1 [Compound 211, (S)-3-(3,5-difluorophenyl)-2-(3-(4-ethylphenyl)ureido)-N-((2R,6S,8aS,14aS,16R,20S,21S,23aS)-16-hydroxy-2,6,21-trimethyl-5,8,14,19,23-pentaoxooctadecahydro-1H,5H,14H,19H-pyrido[2,1-i]dipyrrolo[2,1-c:2′,1′-l][1]oxa[4,7,10,13]tetraazacyclohexadecin-20-yl)propanamide] ({NH(4-Et-phenyl)-CO}-[Phe(3,5-F2)][aThr][Hyp][Pip]A[Pro(4R-Me)]; ester 2-C)",6.8 ± 0.3 µM,–
"Cc1ccc(NC(=O)N[C@@H](Cc2cc(F)cc(F)c2)C(=O)N[C@@H]2C(=O)N3C[C@H](O)CC3C(=O)N(C)[C@@H](C)C(=O)N[C@@H](C)C(=O)N3C[C@H](C)CC3C(=O)O[C@H]2C)cc1 (stereo partly drawn) [Compound 31, (S)-3-(3,5-difluorophenyl)-N-((2S,6S,9S,11aS,13R,17S,18S,20aS)-13-hydroxy-2,6,9,10,18-pentamethyl-5,8,11,16,20-pentaoxohexadecahydro-1H,5H,16H-dipyrrolo[2,1-c:2′,1′-l][1]oxa[4,7,10,13]tetraazacyclohexadecin-17-yl)-2-(3-(p-tolyl)ureido)propanamide] ({NH(4-Me-phenyl)-CO}-[Phe(3,5-F2)][aThr][ξPro(4R-OH)][NMeA]A[ξPro(4R-Me)]; ester 2-C)",5.8 ± 0.3 µM,–
"Cc1ccc(NC(=O)N[C@@H](Cc2cc(F)cc(F)c2)C(=O)N[C@@H]2C(=O)N3CCC[C@H]3C(=O)N3CCCC[C@H]3C(=O)N[C@@H](C)C(=O)N3C[C@H](C)C[C@H]3C(=O)O[C@H]2C)cc1 [Compound 209, (S)-3-(3,5-difluorophenyl)-2-(3-(p-tolyl)ureido)-N-((2R,6S,8aS,14aS,20S,21S,23aS)-2,6,21-trimethyl-5,8,14,19,23-pentaoxooctadecahydro-1H,5H,14H,19H-pyrido[2,1-i]dipyrrolo[2,1-c:2′,1′-l][1]oxa[4,7,10,13]tetraazacyclohexadecin-20-yl)propanamide] ({NH(4-Me-phenyl)-CO}-[Phe(3,5-F2)][aThr]P[Pip]A[Pro(4R-Me)]; ester 2-C)",–,9 ± 0.4 µM
"Cc1ccc(NC(=O)N[C@@H](Cc2cc(F)cc(F)c2)C(=O)N[C@@H]2C(=O)N3CCC[C@H]3C(=O)N3CCOC[C@H]3C(=O)N[C@@H](C)C(=O)N3C[C@H](C)C[C@H]3C(=O)O[C@H]2C)cc1 [Compound 210, (S)-3-(3,5-difluorophenyl)-2-(3-(p-tolyl)ureido)-N-((6aS,12S,13S,15aS,17R,21S,23aS)-13,17,21-trimethyl-6,11,15,20,23-pentaoxooctadecahydro-6H,11H,15H-[1,4]oxazino[3,4-i]dipyrrolo[2,1-c:2′,1′-l][1]oxa[4,7,10,13]tetraazacyclohexadecin-12-yl)propanamide] ({NH(4-Me-phenyl)-CO}-[Phe(3,5-F2)][aThr]P[Morpholine(3S-CO)]A[Pro(4R-Me)]; ester 2-C)",7.1 ± 0.2 µM,–
"C[C@@H]1C[C@H]2C(=O)O[C@@H](C)[C@H](NC(=O)[C@H](Cc3cc(F)cc(F)c3)NC(=O)Nc3ccc(OC(F)(F)F)cc3)C(=O)N3CCC[C@H]3C(=O)N(C)[C@@H]([C@@H](C)O)C(=O)N[C@@H](C)C(=O)N2C1 [Compound 41, (S)-3-(3,5-difluorophenyl)-N-((2R,6S,9S,11aS,17S,18S,20aS)-9-((R)-1-hydroxyethyl)-2,6,10,18-tetramethyl-5,8,11,16,20-pentaoxohexadecahydro-1H,5H,16H-dipyrrolo[2,1-c:2′,1′-l][1]oxa[4,7,10,13]tetraazacyclohexadecin-17-yl)-2-(3-(4-(trifluoromethoxy)phenyl)ureido)propanamide] ({NH(4-OCF3-phenyl)-CO}-[Phe(3,5-F2)][aThr]P[NMeT]A[Pro(4R-Me)]; ester 2-C)",7.53 ± 0.2 µM,–
"Cc1ccc(NC(=O)N[C@@H](Cc2cc(F)cc(F)c2)C(=O)N[C@@H]2C(=O)N3CCC[C@H]3C(=O)N(C)[C@@H]([C@H](C)O)C(=O)N[C@@H](C)C(=O)N3C[C@H](C)C[C@H]3C(=O)O[C@H]2C)cc1 [Compound 208, (S)-3-(3,5-difluorophenyl)-N-((2R,6S,9S,11aS,17S,18S,20aS)-9-((S)-1-hydroxyethyl)-2,6,10,18-tetramethyl-5,8,11,16,20-pentaoxohexadecahydro-1H,5H,16H-dipyrrolo[2,1-c:2′,1′-l][1]oxa[4,7,10,13]tetraazacyclohexadecin-17-yl)-2-(3-(p-tolyl)ureido)propanamide] ({NH(4-Me-phenyl)-CO}-[Phe(3,5-F2)][aThr]P[NMeaThr]A[Pro(4R-Me)]; ester 2-C)",–,6.52 ± 0.3 µM
"C[C@@H]1C[C@H]2C(=O)OC[C@H](NC(=O)[C@H](Cc3ccccc3)NC(=O)Nc3ccc4c(c3)OCO4)C(=O)N3CCC[C@H]3C(=O)N3CCCC[C@H]3C(=O)N[C@@H](C)C(=O)N2C1 [Compound 194, (S)-2-(3-(benzo[d][1,3]dioxol-5-yl)ureido)-N-((2R,6S,8aS,14aS,20S,23aS)-2,6-dimethyl-5,8,14,19,23-pentaoxooctadecahydro-1H,5H,14H,19H-pyrido[2,1-i]dipyrrolo[2,1-c:2′,1′-l][1]oxa[4,7,10,13]tetraazacyclohexadecin-20-yl)-3-phenylpropanamide]",8 ± 0.6 µM,–
"CCc1ccc(NC(=O)N[C@@H](Cc2cc(F)cc(F)c2)C(=O)N[C@@H]2C(=O)N3CCC[C@H]3C(=O)N(C)[C@@H]([C@@H](C)O)C(=O)N[C@@H](C)C(=O)N3C[C@@H](C)C[C@H]3C(=O)O[C@H]2C)cc1 [Compound 37, (S)-3-(3,5-difluorophenyl)-2-(3-(4-ethylphenyl)ureido)-N-((2S,6S,9S,11aS,17S,18S,20aS)-9-((R)-1-hydroxyethyl)-2,6,10,18-tetramethyl-5,8,11,16,20-pentaoxohexadecahydro-1H,5H,16H-dipyrrolo[2,1-c:2′,1′-l][1]oxa[4,7,10,13]tetraazacyclohexadecin-17-yl)propanamide] ({NH(4-Et-phenyl)-CO}-[Phe(3,5-F2)][aThr]P[NMeT]A[Pro(4S-Me)]; ester 2-C)",7 ± 0.4 µM,–
